Reference: PubChem BioAssay (NCI)
Where “and” joins values, the source holds several entries; their conditions need not be identical. Equal entries are not always repeated.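 1) Cells in 96-well plates. 2) Compound, 48 h, 5 concentrations. 3) Linear interpolation between surrounding doses. 4) Unreached endpoint = highest concentration. GI50 = concentration required for 50% inhibition of growth. At the TGI there is no net growth.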

Key:
Assay in all cases: DTP human tumour cell line panel, 48 h
CAKI-1 renal = test system: CAKI-1 renal
A549 NSCLC = test system: A549 NSCLC
CCRF-CEM leukemia = test system: CCRF-CEM leukemia
SK-OV-3 ovarian = test system: SK-OV-3 ovarian
HCT-116 colon = test system: HCT-116 colon
UACC-257 melanoma = test system: UACC-257 melanoma
SK-MEL-28 melanoma = test system: SK-MEL-28 melanoma
COLO 205 colon = test system: COLO 205 colon
UO-31 renal = test system: UO-31 renal
A498 renal = test system: A498 renal

Structure (SMILES) | GI50 (CAKI-1 renal) | TGI (CAKI-1 renal) | GI50 (A549 NSCLC) | TGI (A549 NSCLC) | GI50 (CCRF-CEM leukemia) [µM] | TGI (CCRF-CEM leukemia) | GI50 (SK-OV-3 ovarian) | TGI (SK-OV-3 ovarian) | GI50 (HCT-116 colon) | TGI (HCT-116 colon) | GI50 (UACC-257 melanoma) | TGI (UACC-257 melanoma) | GI50 (SK-MEL-28 melanoma) | TGI (SK-MEL-28 melanoma) | GI50 (COLO 205 colon) | TGI (COLO 205 colon) | GI50 (UO-31 renal) | TGI (UO-31 renal) | GI50 (A498 renal) [µM] | TGI (A498 renal)
O=P(O)(O)OCC1OC(n2cnc3c(NCc4ccco4)ncnc32)C(O)C1O (centres undefined) | 0.596 µM | 3.01 µM | 2.73 µM | > 37.8 µM | 0.315 | 1.14 µM | 2.34 µM | 8.73 µM | 0.41 µM | 1.85 µM | > 100 µM | > 100 µM | 16.2 µM | > 100 µM | 2.12 µM | 9.88 µM | 0.993 µM | > 26.5 µM | 3.32 | 11.7 µM
C=C(C)[C@@H]1CC[C@]2(COCCCNCCCN)CC[C@]3(C)[C@H](CC[C@@H]4[C@@]5(C)CC[C@H](OCCCN)C(C)(C)[C@@H]5CC[C@]43C)[C@@H]12 | 0.982 µM | 2.3 µM | 0.909 µM | 1.71 µM | 0.822 | 1.97 µM | 1.39 µM | 4.28 µM | 0.898 µM | 1.67 µM | 0.914 µM | 1.75 µM | 0.876 µM | 1.6 µM | 0.778 µM | 1.56 µM | 0.765 µM | 1.5 µM | 7.22 | 14.4 µM
CCO/C(CCn1[nH]c(=O)c(Cl)c(Cl)c1=O)=N\NC(=O)C(=O)NN | – | > 100 µM | – | > 100 µM | – | > 100 µM | – | > 100 µM | – | – | – | > 100 µM | – | > 100 µM | – | > 100 µM | – | > 100 µM | – | > 100 µM
COc1cccc(OC(=O)c2ccc(C(F)(F)F)nc2Nc2c(C)cccc2Cl)c1 | 16.3 µM | 48.8 µM | 22.8 µM | 58.6 µM | 25.6 | 78.9 µM | 32.9 µM | > 100 µM | 25.6 µM | > 100 µM | 33.4 µM | > 100 µM | 20.5 µM | 71.6 µM | 22.6 µM | > 100 µM | 15.1 µM | 32 µM | 15 | 41.3 µM
CCN(CC)CCC(=O)OC1C(C)=CC(C)C(=O)CC(C(C)CC2CCC(O)C(OC)C2)OC(=O)C2CCCCN2C(=O)C(=O)[C@@]2(O)OC(CCC2C)CC(OC)\C(C)=C/C=C/C=C/C(C)CC(C)C(=O)C1OC (some centres undefined) | – | 21.5 µM | – | 16.6 µM | – | 13.8 µM | – | 19.4 µM | – | 20.1 µM | – | 27.1 µM | – | 19.3 µM | – | 24.6 µM | – | – | – | 17.6 µM
Nc1ncnc2c1c(-c1ccc(Oc3ccccc3)cc1)nn2C[C@H]1SSC[C@@H]1O | 1.62 µM | 12.7 µM | 0.519 µM | 6.81 µM | 0.2 | 6.28 µM | 0.593 µM | 3.71 µM | 0.332 µM | 12.3 µM | 0.374 µM | 16.1 µM | 0.147 µM | 0.403 µM | 2.06 µM | 9.82 µM | 1.68 µM | 5.7 µM | 1.66 | 4.44 µM
Oc1[nH]c(N=C2N=c3ccccc3=N2)c2ccccc12 | 2.95 µM | 21.7 µM | 8.67 µM | 41.1 µM | 1.48 | 27.8 µM | 12.1 µM | 27.7 µM | 7.3 µM | 29.5 µM | 13.7 µM | > 100 µM | 12.8 µM | 33.6 µM | 6.39 µM | 20.5 µM | 4.58 µM | 18.6 µM | 6.31 | 19.9 µM
CC(=O)O[C@@]12CO[C@@H]1C[C@H](O)[C@@]1(C)C(=O)[C@H](O)C3=C(C)[C@@H](OC(=O)[C@H](O)[C@@H](NC(=O)OC(C)(C)C)c4ccccc4)C[C@@](O)([C@@H](OC(=O)c4ccccc4)C12)C3(C)C (some centres undefined) | 0.225 µM and 0.181 µM | 50 µM and 73.6 µM | < 0.005 µM | 50 µM and > 100 µM | < 0.005 | 29.3 µM and 60.8 µM | < 0.005 µM | 50 µM and 72.6 µM | < 0.005 µM | 50 µM and > 100 µM | 32.3 µM | > 100 µM | 12.7 µM | 50.7 µM | – | 0.0251 µM | 0.372 µM and 0.192 µM | 50 µM and 81.8 µM | – | 37 µM and 73.1 µM
CN(C)C[C@H]1CCn2c(c(C3=C(c4cn(C)c5ccccc45)C(=O)NC3=O)c3ccccc32)C1 | 3.82 µM | 8.74 µM | 5.11 µM | 11.7 µM | 4.46 | 12.4 µM | 5.17 µM | 11.5 µM | 3.47 µM | 7.27 µM | 4.45 µM | 8.45 µM | 4.25 µM | 8.02 µM | 3.71 µM | 7.5 µM | 3.45 µM | 7.31 µM | 3.84 | 9.08 µM
O=C1Nc2ccccc2/C1=C\c1cccc(/C=C2/C(=O)Nc3ccccc32)n1 | 0.338 µM | 1.27 µM | – | – | 0.356 | > 100 µM | 1.21 µM | 2.76 µM | 0.155 µM | 0.296 µM | 0.241 µM | 0.633 µM | 0.218 µM | 0.468 µM | 0.356 µM | 1.57 µM | 0.779 µM | 2.37 µM | 1.5 | 2.9 µM
CN(C)c1ccc(C(=N)c2ccc(N(C)C)cc2)cc1 | 1.62 µM and 3.57 µM | 14.6 µM and 68.5 µM | 5.1 µM and 3.95 µM | 36.7 µM and > 100 µM | 5.33 | 64.5 µM | 3.55 µM and 2.92 µM | 16.6 µM and 22.3 µM | 2.41 µM and 3.46 µM | 14.2 µM and 41 µM | 6.56 µM and 4.76 µM | 30.8 µM and 32.6 µM | 4.82 µM and 3.26 µM | 48.8 µM and 27.5 µM | 2.49 µM and 2.16 µM | 10.7 µM and 8.83 µM | 3.65 µM and 5.86 µM | 32 µM and > 100 µM | – | 7.45 µM and 4.58 µM
CC(CN1CC(=O)NC(=O)C1)N1CC(=O)NC(=O)C1 (centres undefined) | – | > 750 µM | – | > 750 µM | – | > 662 µM | – | > 672 µM | – | > 750 µM | – | > 750 µM | – | > 750 µM | 25.3 µM | 443 µM | – | > 750 µM | – | > 750 µM
O=C(N/C(=C\c1c(O)ccc2ccccc12)c1nc2ccccc2[nH]1)c1ccccc1 | – | > 100 µM | – | > 100 µM | – | > 100 µM | – | > 100 µM | – | > 100 µM | – | > 100 µM | – | > 100 µM | – | > 100 µM | – | > 100 µM | – | > 100 µM
CN(C)C(=S)/N=c1\ssc(=S)n1Cc1cccs1 | – | > 91.4 µM | – | > 91.4 µM | – | > 60.2 µM | – | > 90 µM | – | > 69.6 µM | – | > 75.4 µM | – | > 100 µM | – | 6.41 µM | – | > 100 µM | – | > 100 µM
COc1cc(OC)cc(-c2nc3sccn3c2/C=N/N=C(N)N)c1 | 8.03 µM | 15.2 µM | 10 µM | 19.8 µM | 10.9 | 19.5 µM | 7.28 µM | 15.5 µM | – | – | 7.74 µM | 16.1 µM | – | – | 3.11 µM | 15.8 µM | 15.8 µM | > 50 µM | 9.86 | 17.3 µM
O=C1NCN(c2ccccc2)C12CCN(CCCC(c1ccc(F)cc1)c1ccc(F)cc1)CC2 | 2.51 µM | 7.44 µM | 2.56 µM | 9.68 µM | 2.14 | 6.09 µM | 4.2 µM | 14.7 µM | 1.58 µM | 2.96 µM | 1.59 µM | 3.15 µM | 1.62 µM | 3.1 µM | 1.72 µM | 3.24 µM | 1.28 µM | 3.96 µM | 1.18 | 4.94 µM
C#CCN(N=O)C(=O)NCCCCC(NC(=O)OCc1ccccc1)C(=O)OCc1ccccc1 (centres undefined) | – | 56.6 µM | – | – | – | 45.1 µM | – | > 100 µM | – | > 100 µM | – | > 100 µM | – | > 100 µM | – | – | – | > 100 µM | – | > 100 µM
COc1cc2c(c(O)c1C)C(=O)CC(c1ccccc1)O2 (centres undefined) | – | > 100 µM | – | > 100 µM | – | > 10 µM | – | > 100 µM | – | > 100 µM | – | > 100 µM | – | > 100 µM | – | – | – | > 100 µM | – | > 100 µM
O=C1NC(=O)C(=Cc2c3ccccc3cc3ccccc23)C(=O)N1 | – | > 100 µM | – | > 100 µM | – | > 100 µM | – | > 100 µM | – | > 100 µM | – | – | – | > 100 µM | – | > 100 µM | – | > 100 µM | – | > 100 µM
O=C1OCC(c2ccc(O)cc2)=C1c1cc(O)c(O)c(O)c1 | 43.2 µM | 89.6 µM | > 100 µM | > 100 µM | 51.7 | > 100 µM | – | – | 36 µM | > 100 µM | > 100 µM | > 100 µM | > 100 µM | > 100 µM | > 100 µM | > 100 µM | > 100 µM | > 100 µM | > 100 | > 100 µM
Cc1cc(Br)cc(C)c1NC(=O)C(=O)C(C(=O)c1ccncc1)C1OC(=O)c2ccccc21 (centres undefined) | – | > 100 µM | – | > 100 µM | – | > 100 µM | – | > 100 µM | – | > 100 µM | – | > 100 µM | – | – | – | > 100 µM | – | > 100 µM | – | > 100 µM
CC(=Nc1ccccc1)C1=C(O)C(Cc2cccc(F)c2)NC1=O (centres undefined) | 0.049 µM | > 100 µM | 0.0511 µM | > 100 µM | 0.0581 | > 100 µM | 0.0469 µM | 1.33 µM | 0.047 µM | > 39.4 µM | – | – | – | – | 0.035 µM | 0.141 µM | 0.0789 µM | > 100 µM | 0.0356 | 0.426 µM
